In patent publication US20260297542A1, “HERBICIDE RESISTANT PLANTS” (SYNGENTA CROP PROTECTION AG, priority 2023, published 2026):
Residue numbers refer to the chain shown, from its start.

What was measured:
[1] = target: T1, His-TEV-AtPP01 ΔcTP L479N (SEQ ID NO: 372) (Arabidopsis thaliana, UniProt P55826, L479N); assay: activity rate of PPO variant in in vitro assay; format: biochemical; settings: role: substrate; 1 uM protoporphyrinogen IX; no inhibitor
T1 construct: with cTPs removed; made in house; host or cells: E. coli BL21 (DE3), His GraviTrap, partially purified
T1 sequence (P55826 with tags, fused parts or gaps L479N): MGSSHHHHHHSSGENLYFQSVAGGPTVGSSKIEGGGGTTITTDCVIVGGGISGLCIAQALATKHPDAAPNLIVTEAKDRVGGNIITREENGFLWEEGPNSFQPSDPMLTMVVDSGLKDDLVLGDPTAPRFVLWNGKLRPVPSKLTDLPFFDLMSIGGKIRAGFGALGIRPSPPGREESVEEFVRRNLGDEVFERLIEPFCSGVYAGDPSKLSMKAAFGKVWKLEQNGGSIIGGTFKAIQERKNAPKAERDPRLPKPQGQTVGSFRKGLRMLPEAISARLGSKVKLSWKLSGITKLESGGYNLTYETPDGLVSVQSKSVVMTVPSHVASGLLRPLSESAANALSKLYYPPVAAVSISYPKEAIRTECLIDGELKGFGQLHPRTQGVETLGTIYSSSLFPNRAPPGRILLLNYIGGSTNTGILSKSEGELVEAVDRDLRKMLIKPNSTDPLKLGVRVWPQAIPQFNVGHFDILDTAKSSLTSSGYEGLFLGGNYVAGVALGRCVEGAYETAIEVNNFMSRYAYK
Text: (§1) A pET24 plasmid containing a DNA sequence encoding variants of AtPPO1 derived from Arabidopsis thaliana with cTPs removed and both a 6×His tag and TEV protease cleavage tag added at the N-terminus, codon-optimised for expression in E. coli, and under control of a T7 promoter, was synthesised by Twist Bioscience. The following variants were synthesised: WT AtPPO1 (SEQ ID NO: 370), AtPPO1 L479M (SEQ ID NO: 371), AtPPO1 L479N (SEQ ID NO: 372), AtPPO1 S305L Y426V (SEQ ID NO: 374) and AtPPO1 S305L Y426V L479M (SEQ ID NO: 373). This plasmid was expressed in E. coli BL21 (DE3) with 50 μg/mL kanamycin selection. 10 mL of overnight cultures grown at 37° C. were used to inoculate 1 L AIM (AIM-Terrific Broth Base including Trace elements, Formedium) in 2 L shake flasks. Cultures were grown at 37° C., 200 rpm for 3 hours and then overnight at 26° C. Cells were harvested centrifugation. 5-15 g of cell pellet was lysed in and resuspended in ratio of 1:1.5 in lysis buffer (20 mM Tris pH8, 500 mM sodium chloride, 10% glycerol, 1× complete Protease EDTA-free Inhibitor Tablet (Roche), 10 mM imidazole). The resuspension was sonicated at 75% using 10 cycles of 30 seconds, 40 seconds off. After sonication Triton X-100 was added to the lysates at a final concentration of 0.5%. The lysates were centrifuged at 20,000 rpm for 25 min at 4° C. Cleared lysates were loaded on His GraviTrap (Cytiva) columns, washed with 20 mL of lysis buffer and eluted in elution buffer (20 mM Tris pH8, 500 mM sodium chloride, 10% glycerol, 200 mM imidazole, 0.03% (v/v) Triton X-100). The eluate was desalted on a PD10 column and 2.5-3.2 mL was collected. Protein concentration was measured and calculated using the absorbance at 280 nm. Extracts were diluted 1 in 4 and 10 uL was analysed by SDS PAGE.
(§2) Partially purified Protoporphyrinogen Oxidase enzymes were assayed for activity using fluorescence adapted from the method of Shepherd & Dailey (Anal Biochem. 2005 344(1) 115-121). The assay was performed in black 384 well plates with a clear bottom and the total volume of the reaction mixture was 91 ul. The final assay mixture contained 100 mM K2HPO4 pH7.2, 1 mM Na2EDTA, 5 mM DTT, 20% glycerol (v/v), 0.05% Tween 20 (v/v), 1.1% DMSO (v/v), 1 uM protoporphyrinogen IX and 1.5 nM enzyme. Compounds were dissolved in DMSO at 1 mM and a 4-fold serial dilution carried out to give 8 rates. 1 ul was added to the assay mixture. This gave final compound concentrations of 11, 2.7, 0.69, 0.17, 0.04, 0.01, 0.002, 0.0007 uM. Enzyme and inhibitor were preincubated for 5 minutes prior to starting the reaction with the addition of the substrate. […] IC50s were calculated using GraphPad Prism 7.05 nonlinear regression (Table 6). Each compound was tested in duplicate.

[2] = target: T2, His-TEV-AtPPO1 ΔcTP V002 (SEQ ID NO: 373) (Arabidopsis thaliana, UniProt P55826, L479M/S305L/Y426V); assay: activity rate of PPO variant in in vitro assay; format: biochemical; settings: role: substrate; 1 uM protoporphyrinogen IX; no inhibitor
T2 construct: with cTPs removed; made in house; host or cells: E. coli BL21 (DE3), His GraviTrap, partially purified
T2 sequence (P55826 with tags, fused parts or gaps S305L/Y426V/L479M): T1 sequence (P55826 with tags, fused parts or gaps L479N) with S290L, Y411V, N464M
Text: as §1, §2

**Q.** What does the source list for C=Cc1c2[nH]c(c1C)Cc1[nH]c(c(CCC(=O)O)c1C)Cc1[nH]c(c(C)c1CCC(=O)O)Cc1[nH]c(c(C)c1C=C)C2 [protoporphyrinogen IX]?
**A.** Rate [1]: 13.2 rfu second^−1 pmole^−1; Rate [2]: 7.6 rfu second^−1 pmole^−1
